Assay results as given in patent publication US8822531B2, “Honokiol analogs and their use in treating cancers” (priority 2007, dated 2014).
“And” between values parts separate entries of the source, which are not always exact repeats. Identical values can stand only once.

Test system: tumor cells
Assay: Tumor volume in nude mice injected subcutaneously with tumor cells, treated with honokiol diepoxide
Assay type: in vivo
Settings: 40 mg/kg daily intraperitoneally
Method: Nude mice were injected subcutaneously with approximately one million tumor cells. Once tumors became visible, they were treated with 40 mg/kg daily of honokiol diepoxide. The compound was reconstituted in 100 microliters of ethanol and diluted with 900 microliters of 20% Intralipid, and 0.3 ml of this mixture was injected intraperitoneally daily. Tumors were measured with vernier calipers, and tumor volume was calculated using the formula (width^2×length)0.52, where width is the smallest dimension, 2 represents squared, and […].

For `Oc1ccc(-c2cc(CC3CO3)ccc2O)cc1CC1CO1` (stereo not shown) [Honokiol Epoxide, honokiol diepoxide], the “Average (tumor volume)” value (group average, in mm³ (unit assumed)) was 433.3632, the “Tumor Volume” value (individual animal, volume = (width^2 x length) x 0.52, 40 mg/kg, in mm³ (unit assumed)) was 385.2 and 914.8568 and 0 and the “W (tumor width)” value (individual animal, vernier calipers, 40 mg/kg) was 8.59 and 11 and 0. The “L (tumor length)” value (individual animal, vernier calipers, 40 mg/kg, in mm (unit assumed)) was 10.04 and 14.54 and 0.
